Experimental data as given in patent publication US6825182B2, “17α-fluoroalkyl-11β-benzaldoxime steroids, process for their production, pharmaceutical preparations that contain these steroids as well as their use for the production of pharmaceutical agents” (Schering AG, priority 2002, dated 2004).

How the values were obtained:
Glucocorticoid Receptor = test: Receptor bond: relative molar binding affinity to the glucocorticoid receptor; settings: Dexamethasone = 100%
Progesterone Receptor = test: Receptor bond: relative molar binding affinity to the progesterone receptor; settings: Progesterone = 100%
Description: (§1) The methods for the in-vitro tests and the in-vivo tests with the compounds according to the invention can be found in EP 0 411 733 A2 and DE 43 32 283 A1: […]

pregnancy in rats = test: Early abortive action in rats after subcutaneous administration from the 5th to 7th day of pregnancy; format: in vivo, rat; settings: s.c., day 5-7 of pregnancy; for Complete Inhibition of Pregnancy (empty uteri) N#/N: nonpregnant females/paired females
Description: as §1

[1] = cited from earlier work
tumor models = settings: in vivo; cited from earlier work

Molecule | Relative Molar Binding-affinity RBA (%) to the Glucocorticoid Receptor (Glucocorticoid Receptor) [%] | Relative Molar Binding-affinity RBA (%) to the Progesterone Receptor (Progesterone Receptor) [%] | Complete Inhibition of Pregnancy (empty uteri) (pregnancy in rats; 0.3 mg/animal/day) | Complete Inhibition of Pregnancy (empty uteri) N#/N (pregnancy in rats; 0.3 mg/animal/day) | Complete Inhibition of Pregnancy (empty uteri) (pregnancy in rats; 1 mg/animal/day) | Complete Inhibition of Pregnancy (empty uteri) N#/N (pregnancy in rats; 1 mg/animal/day) | other results
CCNC(=O)ON=Cc1ccc(C2CC3(C)C(CCC3(O)C(F)(F)F)C3CCC4=CC(=O)CCC4=C23)cc1 (stereo not drawn) [compound 3, 4-[17β-Hydroxy-17α-(1,1,1-trifluoromethyl)-3-oxoestra-4,9-dien-11β-yl]benzaldehyde-1(E)-[O-(ethylamino)carbonyl]oxime] | 187 | 98 | – | – | – | – | –
CC12CC(c3ccc(C=NO)cc3)C3=C4CCC(=O)C=C4CCC3C1CCC2(O)C(F)(F)F (stereo not drawn) [Compound No. 2, 4-[17β-Hydroxy-17α-(1,1,1-trifluoromethyl)-3-oxoestra-4,9-dien-11β-yl]benzaldehyde-1(Z)-oxime] | 113 | 123 | – | – | – | – | –
4-[17β-Hydroxy-17α-(1,1,1-trifluoroethyloxymethyl)-3-oxoestra-4,9-dien-11β-yl]-benzaldehyde-(1E)-oxime [Example 6] | – | – | 100 | 4/4 | 100 | 4/4 | Complete Inhibition of Pregnancy (empty uteri) (pregnancy in rats; 0.1 mg/animal/day): 0; Complete Inhibition of Pregnancy (empty uteri) N#/N (pregnancy in rats; 0.1 mg/animal/day): 0/4
CC12CC(c3ccc(C=NO)cc3)C3=C4CCC(=O)C=C4CCC3C1CCC2(O)C(F)(F)F (stereo not drawn) [Example 1, 4-[17β-Hydroxy-17α-(trifluoromethyl)-3-oxoestra-4,9-dien-11β-yl]benzaldehyde-(1E)-oxime] | 163 | 272 | 100 | 4/4 | 100 | 4/4 | Complete Inhibition of Pregnancy (empty uteri) (pregnancy in rats; 0.03 mg/animal/day): 0; Complete Inhibition of Pregnancy (empty uteri) N#/N (pregnancy in rats; 0.03 mg/animal/day): 0/6; Complete Inhibition of Pregnancy (empty uteri) (pregnancy in rats; 0.1 mg/animal/day): 75; Complete Inhibition of Pregnancy (empty uteri) N#/N (pregnancy in rats; 0.1 mg/animal/day): 1/4
CC#C[C@]1(O)CC[C@H]2[C@@H]3CCC4=CC(=O)CCC4=C3[C@@H](c3ccc(N(C)C)cc3)C[C@@]21C [RU 486, 11β-(4-Dimethylaminophenyl)-17β-hydroxy-17α-propinyl-estra-4,9-dien-3-one, reference compound] | – | – | 0 | 0/5 | 20 | 1/5 | Complete Inhibition of Pregnancy (empty uteri) (pregnancy in rats; 3 mg/animal/day): 100; Complete Inhibition of Pregnancy (empty uteri) N#/N (pregnancy in rats; 3 mg/animal/day): 5/5
CC(=O)ON=Cc1ccc(C2CC3(C)C(CCC3(O)C(F)(F)C(F)(F)F)C3CCC4=CC(=O)CCC4=C23)cc1 (stereo not drawn) [compound 5, 4-[17β-Hydroxy-17α-(1,1,2,2,2-pentafluoroethyl)-3-oxoestra-4,9-dien-11β-yl]benzaldehyde-1(E)-O-acetyloxime] | 10 | 0.5 | – | – | – | – | –
COC1(C(F)(F)C(F)(F)F)CCC2C3CCC4=CC(=O)CCC4=C3C(c3ccc(C=NO)cc3)CC21C (stereo not drawn) [Example 4, 4-[17β-Methoxy-17α-(1,1,2,2,2-pentafluoroethyl)-3-oxoestra-4,9-dien-11β-yl]-benzaldehyde-(1E)-oxime] | – | – | – | – | 50 | 2/4 | –
CC(=O)c1ccc([C@H]2C[C@@]3(C)[C@@H](CC[C@@]3(O)C(F)(F)C(F)(F)F)[C@@H]3CCC4=CC(=O)CCC4=C32)cc1 [ZK 230 211, 11β-(4-Acetylphenyl)-17β-hydroxy-17α-(1,1,2,2,2-pentafluoroethyl)-estra-4,9-dien-3-one, reference compound] | – | – | 0 | 0/6 | 75 | 3/4 | Receptor selectivity (in words) [1]: high receptor selectivity; Complete Inhibition of Pregnancy (empty uteri) (pregnancy in rats; 3 mg/animal/day): 100; Complete Inhibition of Pregnancy (empty uteri) N#/N (pregnancy in rats; 3 mg/animal/day): 4/4; Antiproliferative activity in the tumor models (in words) (tumor models): antiproliferative activity
CC12CC(c3ccc(C=NO)cc3)C3=C4CCC(=O)C=C4CCC3C1CCC2(O)C(F)(F)C(F)(F)F (stereo not drawn) [Example 2, 4-[17β-Hydroxy-17α-(1,1,2,2,2-pentafluoroethyl)-3-oxoestra-4,9-dien-11β-yl]-benzaldehyde-(1E)-oxime] | 10 | 23 | – | – | 100 | 5/5 | –
CCNC(=O)ON=Cc1ccc(C2CC3(C)C(CCC3(O)C(F)(F)C(F)(F)F)C3CCC4=CC(=O)CCC4=C23)cc1 (stereo not drawn) [Example 3, 4-[17β-Hydroxy-17α-(1,1,2,2,2-pentafluoroethyl)-3-oxoestra-4,9-dien-11β-yl]-benzaldehyd-1-one-(1E)-{O-(ethylamino)carbonyl-oxime] | 84 | 230 | – | – | 100 | 4/4 | –
CN(C)c1ccc([C@H]2C[C@]3(C)[C@@H](CC[C@]3(O)CCCO)[C@@H]3CCC4=CC(=O)CCC4=C32)cc1 [Onapristone, reference compound] | 39 | 22 | – | – | – | – | –
